Experimental data: patent US8450354B2, “Substituted imidazo[1,2-b]pyridazine derivatives, pharmaceutical compositions, and methods of use as β-secretase inhibitors” (High Point Pharmaceuticals, LLC, priority 2010, dated 2013)

Molecular target: T1, BACE-1 enzyme (Homo sapiens, UniProt P56817)
T1 construct: purchased R & D Systems 931AS
Test: BACE Fluorescence Resonance Energy Transfer (FRET) Assay
Format: biochemical
Settings: pH 4-4.5, 30 min pre-incubation, about 1.5 hours reaction, asterisk = mean
Description: BACE Fluorescence Resonance Energy Transfer (FRET) Assay
In the following assay, the proteolytic activity of BACE is measured by observing cleavage of a fluorescent group from a peptide substrate containing a rhodamine fluorescent donor and a quenching acceptor.
The inhibitory activity of compounds of Formula (I) may be compared to a statine derived control inhibitor STA200 (MP Biomedical Cat. #STA-200). The cleavage reaction occurs when a BACE-1 substrate (Invitrogen, Cat. #P2986) was added to a reaction mixture containing BACE-1 enzyme (R & D Systems, Cat. #931AS) and allowed to proceed for about 1.5 hours. Fluorescence, used as a marker of BACE activity, is monitored using 540 nm excitation and 585 nm emission wavelengths (Envision, Perkin Elmer).
A typical assay reaction contains BACE-1 enzyme-in assay buffer (50 mM sodium acetate, pH 4-4.5, 0.01% CHAPS (3-[(3-Cholamidopropyl)dimethylammonio]-1-propanesulfonate), 0.0125% TritonX-100, 0.006% EDTA) which is pre-incubated for 30 minutes with test compound in 7.5% DMSO. The reaction is initiated with the addition of BACE-1 substrate in assay buffer and allowed to proceed for about 1.5 hours at room temperature. Assays are conducted in black 384-well microtiter plates and scanned at room temperature using 540 nm excitation and 585 nm emission wavelengths.
In some instances, the percent inhibition at a given concentration is reported instead of the IC50.

T1 sequence (P56817 46-457 limits assumed): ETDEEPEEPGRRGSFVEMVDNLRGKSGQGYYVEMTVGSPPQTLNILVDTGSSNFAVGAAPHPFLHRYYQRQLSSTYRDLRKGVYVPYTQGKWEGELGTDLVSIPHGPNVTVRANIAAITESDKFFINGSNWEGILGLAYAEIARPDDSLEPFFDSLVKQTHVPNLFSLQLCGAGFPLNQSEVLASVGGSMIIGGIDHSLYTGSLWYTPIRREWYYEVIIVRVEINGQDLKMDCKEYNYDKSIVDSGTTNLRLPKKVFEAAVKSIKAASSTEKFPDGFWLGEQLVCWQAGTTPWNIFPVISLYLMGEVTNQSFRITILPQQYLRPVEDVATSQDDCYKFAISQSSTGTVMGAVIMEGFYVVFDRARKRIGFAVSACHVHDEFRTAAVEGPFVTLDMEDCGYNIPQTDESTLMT

| IC50 [µM] | SMILES |
| --- | --- |
| 0.344 | CN1CCC[C@H]1COc1ccc2nc(C(=O)Nc3nc4cc(-c5cc(F)cc(Cl)c5)ccc4[nH]3)cn2n1 [Example 68] |
| 0.431 | O=C(Nc1nc2cc(C3CCCC3)ccc2[nH]1)c1cn2nc(N3CC[C@@H](O)C3)ccc2n1 [Example 95] |
| 0.318 | O=C(Nc1nc2cc(-c3cccc(OC(F)(F)F)c3)ccc2[nH]1)c1cn2nc(OCCN3CCCC3)ccc2n1 [Example 21] |
| 1.18 | CCC[C@H](O)COc1ccc2nc(C(=O)Nc3nc4cc(-c5cc(F)cc(Cl)c5)ccc4[nH]3)cn2n1 [Example 125] |
| 0.14 | NCCOc1ccc2nc(C(=O)Nc3nc4cc(-c5cccc(C(F)(F)F)c5)ccc4[nH]3)cn2n1 [Example 60] |
| 0.205 | CCN(CC)CCCOc1ccc2nc(C(=O)Nc3nc4cc(-c5cc(F)cc(Cl)c5)ccc4[nH]3)cn2n1 [Example 20] |
| 0.346 | C[C@@H](N)COc1ccc2nc(C(=O)Nc3nc4cc(-c5cccc(C(F)(F)F)c5)ccc4[nH]3)cn2n1 [Example 73] |
| 0.393 | CC1CCC(c2ccc3[nH]c(NC(=O)c4cn5nc(N6CCOCC6)ccc5n4)nc3c2)CC1 (centres unmarked) [Example 81] |
| 0.253 | CC(C)NCCOc1ccc2nc(C(=O)Nc3nc4cc(-c5cccc(OC(F)(F)F)c5)ccc4[nH]3)cn2n1 [Example 28] |
| 0.291 | CC(C)(C)NCCOc1ccc2nc(C(=O)Nc3nc4cc(-c5cccc(C(F)(F)F)c5)ccc4[nH]3)cn2n1 [Example 24] |
| 0.27 | O=C(Nc1nc2cc(-c3cccc(OC(F)(F)F)c3)ccc2[nH]1)c1cn2nc(OCCN3CCCCCC3)ccc2n1 [Example 34] |
| 0.368 | CCOCCCOc1ccc2nc(C(=O)Nc3nc4cc(-c5cccc(C(F)(F)F)c5)ccc4[nH]3)cn2n1 [Example 13] |
| 0.381 | CNCCOc1ccc2nc(C(=O)Nc3nc4cc(-c5cccc(C(F)(F)F)c5)ccc4[nH]3)cn2n1 [Example 70] |
| 0.268 | CN(C)CC(O)COc1ccc2nc(C(=O)Nc3nc4cc(-c5cccc(C(F)(F)F)c5)ccc4[nH]3)cn2n1 (centres unmarked) [Example 110] |
| 0.219 | C[C@H](N)COc1ccc2nc(C(=O)Nc3nc4cc(-c5cccc(C(F)(F)F)c5)ccc4[nH]3)cn2n1 [Example 74] |
| 0.095 | COc1ccc2nc(C(=O)Nc3nc4cc(OCc5ccc(C(F)(F)F)cc5)ccc4[nH]3)cn2n1 [Example 5] |
| 0.278 | O=C(Nc1nc2cc(-c3cccc(OC(F)(F)F)c3)ccc2[nH]1)c1cn2nc(OCCNC3CCCCC3)ccc2n1 [Example 33] |
| 0.27 | CC(C)NCCOc1ccc2nc(C(=O)Nc3nc4cc(-c5cccc(C(F)(F)F)c5)ccc4[nH]3)cn2n1 [Example 38] |
| 0.161 | O=C(O)COc1ccc2nc(C(=O)Nc3nc4cc(-c5cccc(C(F)(F)F)c5)ccc4[nH]3)cn2n1 [Example 97] |
| 0.16 | CO[C@@H]1CCN(c2ccc3nc(C(=O)Nc4nc5cc(C6CCC(C)(C)CC6)ccc5[nH]4)cn3n2)C1 [Example 89] |
| 0.335 | COCCOc1ccc2nc(C(=O)Nc3nc4cc(-c5ccc(Cl)c(C(F)(F)F)c5)ccc4[nH]3)cn2n1 [Example 62] |

| IC50 [µM] | SMILES |
| --- | --- |
| 0.176 | CN(C)CCOCCOc1ccc2nc(C(=O)Nc3nc4cc(-c5cccc(OC(F)(F)F)c5)ccc4[nH]3)cn2n1 [Example 56] |
| 0.194 | CN(C)CCOCCOc1ccc2nc(C(=O)Nc3nc4cc(-c5cccc(C(F)(F)F)c5)ccc4[nH]3)cn2n1 [Example 59] |
| 0.242 | N[C@H]1CCN(c2ccc3nc(C(=O)Nc4nc5cc(-c6cccc(C(F)(F)F)c6)ccc5[nH]4)cn3n2)C1 [Example 77] |
| 0.365 | CC(C)N(CCOc1ccc2nc(C(=O)Nc3nc4cc(-c5cccc(C(F)(F)F)c5)ccc4[nH]3)cn2n1)C(C)C [Example 42] |
| 0.219 | CN1CCC(Oc2ccc3nc(C(=O)Nc4nc5cc(-c6cc(F)cc(Cl)c6)ccc5[nH]4)cn3n2)CC1 [Example 18] |
| 0.272 | CC(C)OCCOc1ccc2nc(C(=O)Nc3nc4cc(-c5cccc(C(F)(F)F)c5)ccc4[nH]3)cn2n1 [Example 23] |
| 0.216 | CN(C)CCCOc1ccc2nc(C(=O)Nc3nc4cc(-c5cccc(C(F)(F)F)c5)ccc4[nH]3)cn2n1 [Example 72] |
| 0.36 | O=C(Nc1nc2cc(-c3cccc(C(F)(F)F)c3)ccc2[nH]1)c1cn2nc(O[C@H]3CCCNC3)ccc2n1 [Example 75] |
| 0.332 | CN(C)CCN(C)CCOc1ccc2nc(C(=O)Nc3nc4cc(-c5cccc(OC(F)(F)F)c5)ccc4[nH]3)cn2n1 [Example 36] |
| 0.171 | CN(C)CCCOc1ccc2nc(C(=O)Nc3nc4cc(-c5cc(F)cc(Cl)c5)ccc4[nH]3)cn2n1 [Example 17] |
| 0.105 | COc1ccc2nc(C(=O)Nc3nc4cc(OCc5ccccc5)ccc4[nH]3)cn2n1 [Example 4] |
| 1.38 | CO[C@@H]1CCN(c2ccc3nc(C(=O)Nc4nc5cc(-c6ccc(C)s6)ccc5[nH]4)cn3n2)C1 [Example 90] |
| 0.241 | CN(CCOc1ccc2nc(C(=O)Nc3nc4cc(-c5cccc(C(F)(F)F)c5)ccc4[nH]3)cn2n1)c1ccccn1 [Example 44] |
| 0.27 | CC(C)(C)NCCOc1ccc2nc(C(=O)Nc3nc4cc(-c5cccc(OC(F)(F)F)c5)ccc4[nH]3)cn2n1 [Example 30] |
| 0.23 | N[C@@H]1CCN(c2ccc3nc(C(=O)Nc4nc5cc(-c6cccc(C(F)(F)F)c6)ccc5[nH]4)cn3n2)C1 [Example 76] |
| 0.197 | O=C(Nc1nc2cc(-c3cccc(C(F)(F)F)c3)ccc2[nH]1)c1cn2nc(OCCNC3CCCCC3)ccc2n1 [Example 39] |
| 0.2 | O=C(Nc1nc2cc(-c3cccc(C(F)(F)F)c3)ccc2[nH]1)c1cn2nc(N3CCNCC3)ccc2n1 [Example 80] |
| 0.238 | O=C(Nc1nc2cc(-c3cccc(C(F)(F)F)c3)ccc2[nH]1)c1cn2nc(N3CCOCC3)ccc2n1 [Example 65] |
| 0.322 | CN(CCOc1ccc2nc(C(=O)Nc3nc4cc(-c5cccc(OC(F)(F)F)c5)ccc4[nH]3)cn2n1)c1ccccn1 [Example 37] |
| 0.28 | COCCOc1ccc2nc(C(=O)Nc3nc4cc(-c5cccc(C(F)(F)F)c5)ccc4[nH]3)cn2n1 [Example 8, 6-(2-Methoxy-ethoxy)-imidazo[1,2-b]pyridazine-2-carboxylic acid [5-(3-trifluoromethyl-phenyl)-1H-benzoimidazol-2-yl]-amide] |
| 0.32 | CCOCCOCCOc1ccc2nc(C(=O)Nc3nc4cc(-c5cccc(C(F)(F)F)c5)ccc4[nH]3)cn2n1 [Example 11] |

| IC50 [µM] | SMILES |
| --- | --- |
| 0.223 | CC(C)(C)NCCOc1ccc2nc(C(=O)Nc3nc4cc(-c5cc(F)cc(Cl)c5)ccc4[nH]3)cn2n1 [Example 52] |
| 0.166 | O=C(Nc1nc2cc(-c3cc(F)cc(Cl)c3)ccc2[nH]1)c1cn2nc(OCCN3CCCC3)ccc2n1 [Example 19] |
| 0.289 | O=C(Nc1nc2cc(-c3cc(F)cc(Cl)c3)ccc2[nH]1)c1cn2nc(OC3CCOCC3)ccc2n1 [Example 16] |
| 0.212 | CN1CCN(CCOc2ccc3nc(C(=O)Nc4nc5cc(-c6cc(F)cc(Cl)c6)ccc5[nH]4)cn3n2)CC1 [Example 55] |
| 0.56 | COC1CCN(c2ccc3nc(C(=O)Nc4nc5cc(C6CCC(C)(C)CC6)ccc5[nH]4)cn3n2)CC1 [Example 87] |
| 0.249 | CCOCCOc1ccc2nc(C(=O)Nc3nc4cc(-c5cccc(C(F)(F)F)c5)ccc4[nH]3)cn2n1 [Example 22] |
| 0.328 | O=C(O)CCNc1ccc2nc(C(=O)Nc3nc4cc(-c5cccc(Cl)c5)ccc4[nH]3)cn2n1 [Example 96] |
| 2.34 | CO[C@H]1CCN(c2ccc3nc(C(=O)Nc4nc5cc(-c6ccc(C)s6)ccc5[nH]4)cn3n2)C1 [Example 91] |
| 0.337 | O=C(Nc1nc2cc(-c3cccc(C(F)(F)F)c3)ccc2[nH]1)c1cn2nc(N[C@H]3CCNC3)ccc2n1 [Example 78] |
| 0.244 | Cc1ccc2nc(C(=O)Nc3nc4cc(OCc5ccccc5)ccc4[nH]3)cn2n1 [Example 6] |
| 0.315 | CC(C)N(CCOc1ccc2nc(C(=O)Nc3nc4cc(-c5cc(F)cc(Cl)c5)ccc4[nH]3)cn2n1)C(C)C [Example 48] |
| 0.361 | CN(C)CCOc1ccc2nc(C(=O)Nc3nc4cc(-c5ccc(Cl)c(C(F)(F)F)c5)ccc4[nH]3)cn2n1 [Example 63] |
| 0.476 | CC1(C)CCC(c2ccc3[nH]c(NC(=O)c4cn5nc(OC6CCC(O)CC6)ccc5n4)nc3c2)CC1 (centres unmarked) [Example 88] |
| 0.272 | CN(C)CCOc1ccc2nc(C(=O)Nc3nc4cc(-c5cc(F)cc(Cl)c5)ccc4[nH]3)cn2n1 [Example 15] |
| 0.173 | O=C(Nc1nc2cc(-c3cc(F)cc(Cl)c3)ccc2[nH]1)c1cn2nc(OCCNC3CCCCC3)ccc2n1 [Example 51] |
| 0.327 | O=C(Nc1nc2cc(-c3cccc(C(F)(F)F)c3)ccc2[nH]1)c1cn2nc(OCCN3CCCC3)ccc2n1 [Example 71] |
| 0.152 | CNCCOc1ccc2nc(C(=O)Nc3nc4cc(-c5cc(F)cc(Cl)c5)ccc4[nH]3)cn2n1 [Example 14] |
| 0.293 | O=C(Nc1nc2cc(-c3cc(F)cc(Cl)c3)ccc2[nH]1)c1cn2nc(OCC[C@@H](O)CO)ccc2n1 [Example 129] |
| 0.334 | C[C@@H](CO)Oc1ccc2nc(C(=O)Nc3nc4cc(-c5cccc(OC(F)(F)F)c5)ccc4[nH]3)cn2n1 [Example 103] |
| 1.07 | CC1(C)CCC(c2ccc3[nH]c(NC(=O)c4cn5nc(C6CCNCC6)ccc5n4)nc3c2)CC1 [Example 82] |
